The assay can be described thus: compounds lowering VP16-driven luciferase output – cell-based, luminescence, dose response, counter-screen for LRH-1 inverse agonist project, late-stage follow-up (AID 651974). The settings on record: HEK293 cells transfected with Gal4-VP16 and pGL4.31 luciferase reporter.

Calls of active or inactive are those of the source. The rule behind the calls is not given here.

As for `NC(=O)C1CCN(C(=O)COc2ccc3c4c(c(=O)oc3c2)CCCC4)CC1`, the IC50 is > 35.9 µM (inactive).
In the case of `COC(=O)c1ccc(NC(=O)CSc2ccc(-c3ccccn3)nn2)cc1`, the IC50 was > 35.9 µM (inactive).
Take `Cc1ccc(NC(=O)COC(=O)C(NS(=O)(=O)c2ccc(Cl)cc2)C(C)O)cc1C` (centres undefined): the IC50 was > 35.9 µM (inactive).
On to `COc1ccc(CCNC(=O)CSc2ccc(NC(C)=O)cc2)cc1OC`, for which the IC50 was > 35.9 µM (inactive).
Regarding `Cc1ccc(NC(=O)CSc2nc3[nH]c(=O)cc(O)c3s2)c(Br)c1`, the IC50 was > 35.9 µM (inactive).
For `COc1ccccc1Oc1nnnn1-c1ccc(C(N)=O)cc1`, the IC50 was > 35.9 µM (inactive).
For `COC(=O)c1ccc(NC(=O)CSc2nn3c(=O)c(C)nnc3s2)cc1`, the IC50 was > 35.9 µM (inactive).
Regarding `O=C(NCC1CCCO1)c1ccc(NC(=O)c2cccc([N+](=O)[O-])c2)cc1` (centres undefined), the IC50 was > 35.9 µM (inactive).
Regarding `COc1ccc(CCNC(=O)COC(=O)Cc2ccccc2[N+](=O)[O-])cc1`, the IC50 was > 35.9 µM (inactive).
For `Cc1cc(Br)ccc1NC(=O)CN1C(=O)CCC1=O`, the IC50 is > 35.9 µM (inactive).
Turning to `O=C(Nc1nc2c(Cl)cccc2s1)c1ccc([N+](=O)[O-])o1`, the IC50 was > 35.9 µM (inactive).
For the compound `COc1ccc(NC(=O)CS(=O)(=O)c2ccc(C)cc2)c(OC)c1`, the IC50 was > 35.9 µM (inactive).
`COc1ccc(NC(=O)CSc2nc(N)c(-c3ccccc3)c(=O)[nH]2)cc1`: the IC50 is > 35.9 µM (inactive).
Turning to `O=C(CN1C(=O)CCC1=O)Nc1ccc(Br)cc1`, the IC50 was > 35.9 µM (inactive).
On to `COc1ccc(NC(=O)COC(=O)c2c(-c3ccccc3)noc2C)cc1`, for which the IC50 is > 35.9 µM (inactive).
With `O=C(NCc1ccco1)c1nn(-c2ccccc2)c(=O)c2ccccc12`, the IC50 is > 35.9 µM (inactive).
Turning to `CCCc1nnc(SCC(=O)Nc2ccc(C(=O)OCC)cc2)o1`, the IC50 was > 35.9 µM (inactive).
As to `CCc1cc(=O)oc2c(C)c(OCC(=O)NCCN3CCOCC3)ccc12`, the IC50 was > 35.9 µM (inactive).
As for `O=C(Nc1ccc(S(=O)(=O)N2CCOCC2)cc1)c1cccc([N+](=O)[O-])c1`, the figure is > 35.9 µM (inactive); as for `CC(=O)Nc1ccc(NC(=O)CSc2ccc(-c3ccco3)nn2)cc1`, > 35.9 µM (inactive).
`COc1ccc(C2(C)NC(=O)N(CC(=O)NCCC3=CCCCC3)C2=O)cc1OC` (centres undefined): the IC50 was > 35.9 µM (inactive).
For `COc1ccc(CCNC(=O)COC(=O)c2cc(Cl)nc(Cl)c2)cc1` the value was > 35.9 µM (inactive); for `CCc1cc(=O)[nH]c(SCC(=O)Nc2ccc3c(c2)OCCO3)n1`, > 35.9 µM (inactive).
Turning to `O=C(COc1ccc2c3c(c(=O)oc2c1)CCCC3)NCc1ccccn1`, the IC50 is > 35.9 µM (inactive).
Take `O=c1[nH]c(Nc2ccc3c(c2)OCCO3)nnc1Cc1ccccc1`: the IC50 is > 35.9 µM (inactive).
Regarding `O=C(Nc1ccccc1)c1oc2ccccc2c1NC(=O)C1CC1`, the IC50 is > 35.9 µM (inactive).
With `Cc1cc(C)c2nc(NC(=O)c3ccc([N+](=O)[O-])o3)sc2c1`, the IC50 was > 35.9 µM (inactive).
In the case of `O=C(CSc1nnc(CNC(=O)c2ccccc2F)o1)Nc1ccc2c(c1)OCCO2`, the IC50 is > 35.9 µM (inactive).
As to `O=C(COC(=O)c1ccc(=O)n(Cc2ccccc2)n1)Nc1ccc2c(c1)OCCO2`, the IC50 is > 35.9 µM (inactive).
For `O=C(CSc1nc(=O)n2cc(Cl)ccc2n1)Nc1ccc2c(c1)OCCO2` the value was > 35.9 µM (inactive); for `COC(=O)c1ccc(NC(=O)CSc2nncn2-c2cccnc2)cc1`, > 35.9 µM (inactive).
For `CC(=O)c1ccc(OC(C)C(=O)OCC(=O)NCCc2ccccc2)cc1` (centres undefined), the IC50 is > 35.9 µM (inactive).
With `Cc1cc(Br)ccc1NC(=O)CSc1nnc(CN2CCOCC2)n1C`, the IC50 was > 35.9 µM (inactive).
As to `CCOc1ccc(OCCC(=O)OCC(=O)Nc2ccc3c(c2)OCCO3)cc1`, the IC50 was > 35.9 µM (inactive).

The values are drawn from PubChem BioAssay AID651974 (The Scripps Research Institute Molecular Screening Center, 2013).
